Measured values from PubChem BioAssay AID328 (DTP/NCI, 2004).
Values joined by “and” are separate entries in the source; they are usually repeats but may differ in a detail not shown here. Equal values may be shown once. Toxic doses and inconclusive results are not listed. How the source made its calls: active means survival T/C of 150% or more; inactive means T/C below 125% in these data.

Tested on: BDF1 mice, P388 leukemia ip, median survival T/C
Experiment: NCI In Vivo Anticancer Drug Screen. Data for tumor model P388 Leukemia (intraperitoneal) in B6D2F1 (BDF1) mice
Settings: endpoint: median survival time, higher = longer survival
Summary of the method: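 Steps: implant the tumour, treat one group with compound and another with vehicle, record survival, then divide treated by control.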

[1] = dose: 25.0 mg/kg/injection, schedule: Q01DX009 (ip), vehicle: saline
[2] = dose: 25.0 mg/kg/injection, schedule: Q04DX003 (ip), vehicle: Klucel (hydroxypropylcellulose) (HPC)
[3] = dose: 35.0 mg/kg/injection, schedule: Q01DX009 (ip), vehicle: saline
[4] = dose: 50.0 mg/kg/injection, schedule: Q04DX003 (ip), vehicle: Klucel (hydroxypropylcellulose) (HPC)
[5] = dose: 100.0 mg/kg/injection, schedule: Q04DX003 (ip), vehicle: Klucel (hydroxypropylcellulose) (HPC)
[6] = dose: 50.0 mg/kg/injection, schedule: Q01DX009 (ip), vehicle: saline

Measured: T/C

O=NN(CCCl)C(=O)N[C@@H]1CCCC[C@H]1NC(=O)N(CCCl)N=O
active: dose: 1.0 mg/kg/injection, schedule: Q04DX003 (ip), vehicle: Klucel (hydroxypropylcellulose) (HPC) 150 % of control | dose: 4.5 mg/kg/injection, schedule: Q01DX009 (ip), vehicle: Klucel (hydroxypropylcellulose) (HPC) 191 % of control | dose: 6.0 mg/kg/injection, schedule: Q01DX009 (ip), vehicle: Klucel (hydroxypropylcellulose) (HPC) 172 % of control | dose: 6.0 mg/kg/injection, schedule: Q04DX003 (ip), vehicle: Klucel (hydroxypropylcellulose) (HPC) 150 % of control and 162 % of control and 172 % of control | dose: 7.0 mg/kg/injection, schedule: Q01DX009 (ip), vehicle: Klucel (hydroxypropylcellulose) (HPC) 233 % of control | dose: 9.0 mg/kg/injection, schedule: Q04DX003 (ip), vehicle: Klucel (hydroxypropylcellulose) (HPC) 213 % of control | dose: 11.0 mg/kg/injection, schedule: Q01DX009 (ip), vehicle: Klucel (hydroxypropylcellulose) (HPC) 237 % of control and 250 % of control | dose: 12.0 mg/kg/injection, schedule: Q01DX009 (ip), vehicle: Klucel (hydroxypropylcellulose) (HPC) 250 % of control | dose: 12.0 mg/kg/injection, schedule: Q04DX003 (ip), vehicle: Klucel (hydroxypropylcellulose) (HPC) 159 % of control | dose: 12.5 mg/kg/injection, schedule: Q01DX009 (ip), vehicle: Klucel (hydroxypropylcellulose) (HPC) 155 % of control | dose: 13.0 mg/kg/injection, schedule: Q04DX003 (ip), vehicle: Klucel (hydroxypropylcellulose) (HPC) 250 % of control and 204 % of control | dose: 16.5 mg/kg/injection, schedule: Q01DX009 (ip), vehicle: Klucel (hydroxypropylcellulose) (HPC) 250 % of control | dose: 20.0 mg/kg/injection, schedule: Q04DX003 (ip), vehicle: Klucel (hydroxypropylcellulose) (HPC) 260 % of control and 272 % of control | dose: 25.0 mg/kg/injection, schedule: Q01DX009 (ip), vehicle: Klucel (hydroxypropylcellulose) (HPC) 272 % of control and 280 % of control | [1] 250 % of control | [2] 222 % of control | dose: 30.0 mg/kg/injection, schedule: Q04DX003 (ip), vehicle: Klucel (hydroxypropylcellulose) (HPC) 250 % of control and 272 % of control and 300 % of control | dose: 40.0 mg/kg/injection, schedule: Q04DX003 (ip), vehicle: Klucel (hydroxypropylcellulose) (HPC) 300 % of control | dose: 44.0 mg/kg/injection, schedule: Q04DX003 (ip), vehicle: Klucel (hydroxypropylcellulose) (HPC) 250 % of control | [4] 272 % of control | dose: 67.0 mg/kg/injection, schedule: Q04DX003 (ip), vehicle: Klucel (hydroxypropylcellulose) (HPC) 241 % of control and 250 % of control and 300 % of control | [5] 260 % of control and 150 % of control and 195 % of control
inactive: dose: 0.12 mg/kg/injection, schedule: Q04DX003 (ip), vehicle: Klucel (hydroxypropylcellulose) (HPC) 120 % of control | dose: 0.18 mg/kg/injection, schedule: Q01DX009 (ip), vehicle: Klucel (hydroxypropylcellulose) (HPC) 100 % of control | dose: 0.25 mg/kg/injection, schedule: Q04DX003 (ip), vehicle: Klucel (hydroxypropylcellulose) (HPC) 100 % of control | dose: 0.37 mg/kg/injection, schedule: Q01DX009 (ip), vehicle: Klucel (hydroxypropylcellulose) (HPC) 88 % of control | dose: 0.5 mg/kg/injection, schedule: Q04DX003 (ip), vehicle: Klucel (hydroxypropylcellulose) (HPC) 108 % of control | dose: 0.75 mg/kg/injection, schedule: Q01DX009 (ip), vehicle: Klucel (hydroxypropylcellulose) (HPC) 88 % of control | dose: 1.5 mg/kg/injection, schedule: Q01DX009 (ip), vehicle: Klucel (hydroxypropylcellulose) (HPC) 88 % of control | dose: 2.0 mg/kg/injection, schedule: Q04DX003 (ip), vehicle: Klucel (hydroxypropylcellulose) (HPC) 113 % of control | dose: 3.0 mg/kg/injection, schedule: Q04DX003 (ip), vehicle: Klucel (hydroxypropylcellulose) (HPC) 109 % of control | [3] 91 % of control | dose: 150.0 mg/kg/injection, schedule: Q04DX003 (ip), vehicle: Klucel (hydroxypropylcellulose) (HPC) 95 % of control | dose: 200.0 mg/kg/injection, schedule: Q04DX003 (ip), vehicle: Klucel (hydroxypropylcellulose) (HPC) 86 % of control and 122 % of control

O=C(Nc1ccc(Cl)c(Cl)c1)Nc1c(Oc2ccc(Cl)c(Cl)c2)ccc(Cl)c1S(=O)(=O)O
inactive: dose: 6.25 mg/kg/injection, schedule: Q01DX009 (ip), vehicle: saline 118 % of control | dose: 12.5 mg/kg/injection, schedule: Q01DX009 (ip), vehicle: saline 109 % of control | [1] 104 % of control | [3] 118 % of control | [6] 105 % of control | dose: 55.0 mg/kg/injection, schedule: Q01DX009 (ip), vehicle: saline 113 % of control | dose: 80.0 mg/kg/injection, schedule: Q01DX009 (ip), vehicle: saline 111 % of control

N#CC(O)Cc1ccccc1 (stereo not drawn)
inactive: dose: 2.5 mg/kg/injection, schedule: Q01DX009 (ip), vehicle: other 100 % of control | dose: 5.0 mg/kg/injection, schedule: Q01DX009 (ip), vehicle: other 100 % of control | dose: 10.0 mg/kg/injection, schedule: Q01DX009 (ip), vehicle: other 100 % of control

Cc1c([C@H](C)[C@@H]2NC[C@@H](C)C[C@H]2O)ccc2c1C[C@H]1[C@H]2CC=C2C[C@@H](O)CC[C@@]21C
inactive: dose: 3.0 mg/kg/injection, schedule: Q01DX010 (ip), vehicle: carboxymethylcellulose (CMC) 115 % of control

CCOC(=O)c1c[nH]c2ccc(OC)cc2c1=O
inactive: [1] 111 % of control | [6] 104 % of control | dose: 100.0 mg/kg/injection, schedule: Q01DX009 (ip), vehicle: saline 117 % of control | dose: 100.0 mg/kg/injection, schedule: Q04DX003 (ip), vehicle: saline 107 % of control | dose: 200.0 mg/kg/injection, schedule: Q01DX009 (ip), vehicle: saline 113 % of control | dose: 200.0 mg/kg/injection, schedule: Q04DX003 (ip), vehicle: saline 98 % of control | dose: 400.0 mg/kg/injection, schedule: Q01DX009 (ip), vehicle: saline 109 % of control | dose: 400.0 mg/kg/injection, schedule: Q04DX003 (ip), vehicle: saline 100 % of control

CC(=O)O[C@H]1C(=O)[C@@]2(C)[C@H]([C@H](OC(=O)c3ccccc3)[C@]3(O)C[C@H](OC(=O)[C@H](O)[C@@H](NC(=O)c4ccccc4)c4ccccc4)C(C)=C1C3(C)C)[C@]1(OC(C)=O)CO[C@@H]1C[C@@H]2O
active: dose: 5.0 mg/kg/injection, schedule: Q01DX010 (ip), vehicle: steriod suspending solution 186 % of control | dose: 10.0 mg/kg/injection, schedule: Q01DX010 (ip), vehicle: steriod suspending solution 172 % of control | dose: 20.0 mg/kg/injection, schedule: Q01DX010 (ip), vehicle: steriod suspending solution 190 % of control | dose: 21.6 mg/kg/injection, schedule: Q04DX003 (ip), vehicle: Klucel (hydroxypropylcellulose) (HPC) 171 % of control | [2] 162 % of control | dose: 25.9 mg/kg/injection, schedule: Q04DX003 (ip), vehicle: Klucel (hydroxypropylcellulose) (HPC) 179 % of control | dose: 43.2 mg/kg/injection, schedule: Q04DX003 (ip), vehicle: Klucel (hydroxypropylcellulose) (HPC) 170 % of control | [4] 165 % of control | dose: 72.0 mg/kg/injection, schedule: Q04DX003 (ip), vehicle: Klucel (hydroxypropylcellulose) (HPC) 166 % of control | [5] 173 % of control
inactive: dose: 12.5 mg/kg/injection, schedule: Q04DX003 (iv), vehicle: Klucel (hydroxypropylcellulose) (HPC) 100 % of control | dose: 25.0 mg/kg/injection, schedule: Q01DX010 (ip), vehicle: steriod suspending solution 113 % of control | dose: 25.0 mg/kg/injection, schedule: Q04DX003 (iv), vehicle: Klucel (hydroxypropylcellulose) (HPC) 98 % of control | dose: 50.0 mg/kg/injection, schedule: Q04DX003 (iv), vehicle: Klucel (hydroxypropylcellulose) (HPC) 103 % of control | dose: 60.0 mg/kg/injection, schedule: Q04DX003 (ip), vehicle: Klucel (hydroxypropylcellulose) (HPC) 102 % of control | dose: 120.0 mg/kg/injection, schedule: Q04DX003 (ip), vehicle: Klucel (hydroxypropylcellulose) (HPC) 100 % of control

Nc1nc(N)c2cc([N+](=O)[O-])ccc2n1
inactive: dose: 50.0 mg/kg/injection, schedule: Q01DX009 (ip), vehicle: saline with Tween-80 96 % of control | dose: 100.0 mg/kg/injection, schedule: Q01DX009 (ip), vehicle: saline with Tween-80 101 % of control | dose: 200.0 mg/kg/injection, schedule: Q01DX009 (ip), vehicle: saline with Tween-80 99 % of control | dose: 400.0 mg/kg/injection, schedule: Q01DX009 (ip), vehicle: saline with Tween-80 95 % of control
